Data set [1] can be described thus: Determination of PK parameters in dog after intravenous bolus. The class given is in vivo, Male beagle dogs. The note with it: male beagle dog, plasma, 50% DMSO in PEG400, read-out: Dog t1/2 (terminal half-life) (converted). As for the experimental part:
Determination of PK Parameters Male beagle dogs (weight 9-13 kg) were fasted overnight and housed individually. Water was provided ad lib throughout the study. Food was allowed approximately 4 hr post dose. […] The formulations were given intravenous as a bolus injection into the cephalic vein. The vein used for the dosing will not be used for the blood sample collection for the first 4 hr post-dose). […] EDTA was used as anticoagulant and approximately 0.5 mL aliquots of blood samples were collected at each time point. […] Test compound concentration in dog plasma was determined using a LC/MS/MS method. Typically the LC/MS/MS system consisted of an ACQUITY UPLC system with autosampler system refrigerated at 4° C. during analysis, and an API 4000 mass spectrometer. […] The mobile phase consisting of a solvent A (0.1% formic acid in water/acetonitrile (95/5)) and solvent B (0.1% formic acid in acetonitrile/water (95/5)) was delivered at a flow rate of 600 μL/min. […] Mass spectrometric detection of the analytes is accomplished using either an ESI or APCI interface operated in the positive or negative ionization mode. Analyte response is measured by multiple reaction monitoring (MRM) of transitions unique to each compound […]

Data set [2] has as its target HIV-1 RT wild-type enzyme (Human immunodeficiency virus type 1 group M subtype B (isolate HXB2) (HIV-1), UniProt P04585). As to the kind of experiment: HIV-1 reverse transcriptase inhibitory activity (RT polymerase assay). The class given is biochemical. The settings on record: HIV-1 RT wild-type enzyme 83 pM; RNA-dependent DNA polymerase activity; read-out: IC50. The gist of the method: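 Biotinylated DNA primer annealed to HCV-derived RNA template (16.6 nM final hybrid), with 2 μM dATP/dGTP/dCTP and 66.6 nM Ru-dUTP, after 30 min compound–enzyme preincubation at room temperature; polymerization 90 min at 37 °C, EDTA quench. Product captured on avidin plates, electrochemiluminescence read; IC50 by four-parameter logistic fit versus DMSO and 1 μM efavirenz controls.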

As a reminder, the IC50 is the midpoint of a concentration-inhibition curve.

With `N#Cc1cc(Cl)cc(Oc2c(C(F)(F)F)ncn(Cc3cc(-c4ccccc4)n[nH]c3=O)c2=O)c1` [Example 110, 3-chloro-5-((6-oxo-1-((3-oxo-6-phenyl-2,3-dihydropyridazin-4-yl)methyl)-4-(trifluoromethyl)-1,6-dihydropyrimidin-5-yl)oxy)benzonitrile], the half-life in data set [1] was 20 h. Moreover, the half-maximal inhibitory concentration (IC50) in data set [2] was 3 nM.
The matching figures for `N#Cc1cc(Cl)cc(Oc2c(C(F)(F)F)ncn(Cc3cc(C4CC4)n[nH]c3=O)c2=O)c1` [Example 117, 3-chloro-5-((1-((6-cyclopropyl-3-oxo-2,3-dihydropyridazin-4-yl)methyl)-6-oxo-4-(trifluoromethyl)-1,6-dihydropyrimidin-5-yl)oxy)benzonitrile]: 30 h and 6 nM.
The like results for `N#Cc1cc(Cl)cc(Oc2c(C(F)(F)F)ncn(Cc3cc(C(F)F)n[nH]c3=O)c2=O)c1` [Example 128, 3-chloro-5-((1-((6-(difluoromethyl)-3-oxo-2,3-dihydropyridazin-4-yl)methyl)-6-oxo-4-(trifluoromethyl)-1,6-dihydropyrimidin-5-yl)oxy)benzonitrile] were, in that order, 81 h and 4 nM.
Consider `CC(F)(F)c1cc(Cn2cnc(C(F)(F)F)c(Oc3cc(Cl)cc(C#N)c3)c2=O)c(=O)[nH]n1` [Example 129, 3-chloro-5-((1-((6-(1,1-difluoroethyl)-3-oxo-2,3-dihydropyridazin-4-yl)methyl)-6-oxo-4-(trifluoromethyl)-1,6-dihydropyrimidin-5-yl)oxy)benzonitrile], for which the half-life in data set [1] is 126 h. Moreover, in data set [2], the IC50 was determined as 6 nM.
The like results for `CC(C)(C)c1ncc(Cn2cnc(C(F)(F)F)c(Oc3cc(Cl)cc(C#N)c3)c2=O)c(=O)[nH]1` [Example 130, 3-((1-((2-(tert-butyl)-6-oxo-1,6-dihydropyrimidin-5-yl)methyl)-6-oxo-4-(trifluoromethyl)-1,6-dihydropyrimidin-5-yl)oxy)-5-chlorobenzonitrile] were, in that order, 24 h and 12 nM.
